Data reported in US10561656B2, “Organic compounds” (INTRA-CELLULAR THERAPIES, INC., priority 2011, dated 2020).

How the values were obtained:
[1] = target: recombinant full length human PDE1B (r-hPDE1B) (Homo sapiens (Human), UniProt Q01064); assay: IMAP phosphodiesterase assay, r-hPDE1B; format: biochemical; conditions: IMAP fluorescence polarization, FL-GMP substrate
From the text: (§1) Phosphodiesterase 1B (PDE1B) is a calcium/calmodulin dependent phosphodiesterase enzyme that converts cyclic guanosine monophosphate (cGMP) to 5′-guanosine monophosphate (5′-GMP). PDE1B can also convert a modified cGMP substrate, such as the fluorescent molecule cGMP-fluorescein, to the corresponding GMP-fluorescein. The generation of GMP-fluorescein from cGMP-fluorescein can be quantitated, using, for example, the IMAP (Molecular Devices, Sunnyvale, Calif.) immobilized-metal affinity particle reagent.
(§2) Briefly, the IMAP reagent binds with high affinity to the free 5′-phosphate that is found in GMP-fluorescein and not in cGMP-fluorescein. The resulting GMP-fluorescein—IMAP complex is large relative to cGMP-fluorescein. Small fluorophores that are bound up in a large, slowly tumbling, complex can be distinguished from unbound fluorophores, because the photons emitted as they fluoresce retain the same polarity as the photons used to excite the fluorescence.
(§3) In the phosphodiesterase assay, cGMP-fluorescein, which cannot be bound to IMAP, and therefore retains little fluorescence polarization, is converted to GMP-fluorescein, which, when bound to IMAP, yields a large increase in fluorescence polarization (Δmp) Inhibition of phosphodiesterase, therefore, is detected as a decrease in Δmp.
Materials: All chemicals are available from Sigma-Aldrich (St. Louis, Mo.) except for IMAP reagents (reaction buffer, binding buffer, FL-GMP and IMAP beads), which are available from Molecular Devices (Sunnyvale, Calif.). […]
(§4) The FL-GMP conversion reaction is initiated by combining 4 parts enzyme and inhibitor mix with 1 part substrate solution (0.225 μM) in a 384-well microtiter plate. […] The plate is incubated at room temperature for 1 hour to allow IMAP binding to proceed to completion, and then placed in an Envision multimode microplate reader (PerkinElmer, Shelton, Conn.) to measure the fluorescence polarization (Δmp).
(§5) A decrease in GMP concentration, measured as decreased Δmp, is indicative of inhibition of PDE activity.

[2] = target: recombinant full length human PDE1A (r-hPDE1A) (Homo sapiens (Human), UniProt P54750); assay: IMAP phosphodiesterase assay, r-hPDE1A; format: biochemical; conditions: IMAP fluorescence polarization, FL-GMP substrate
From the text: as §1, §2, §3
Materials: All chemicals are available from Sigma-Aldrich (St. Louis, Mo.) except for IMAP reagents (reaction buffer, binding buffer, FL-GMP and IMAP beads), which are available from Molecular Devices (Sunnyvale, Calif.).
Assay: The following phosphodiesterase enzymes may be used: 3′,5′-cyclic-nucleotide-specific bovine brain phosphodiesterase (Sigma, St. Louis, Mo.) (predominantly PDE1B) and recombinant full length human PDE1A and PDE1B (r-hPDE1A and r-hPDE1B respectively) which may be produced e.g., in HEK or SF9 cells by one skilled in the art. The PDE1 enzyme is reconstituted with 50% glycerol to 2.5 U/ml. One unit of enzyme will hydrolyze 1.0 μmole of 3′,5′-cAMP to 5′-AMP per min at pH 7.5 at 30° C. One part enzyme is added to 1999 parts reaction buffer (30 μM CaCl2, 10 U/ml of calmodulin (Sigma P2277), 10 mM Tris-HCl pH 7.2, 10 mM MgCl2, 0.1% BSA, 0.05% NaN3) to yield a final concentration of 1.25 mU/ml. […]
as §4, §5

C57BL/6 mice = assay: Haloperidol-induced catalepsy model (bar grip test); format: in vivo; conditions: mouse, PO, haloperidol 3 mg/kg PO, step down latency
From the text: To evaluate the potential beneficial effects to motor defects present in schizophrenics treated with typical and atypical antipsychotic agents and in Parkinson's disease patients, the compounds of the invention may be tested in a reversal of catalepsy model in which motor freezing, or catalepsy, is induced by potent dopamine D2 receptor antagonists such as haloperidol or risperidone. The method uses the “bar grip test”, in which the front paws of the mouse are placed so as to grip a 3 mm-diameter, suspended wooden bar. A “step down latency” is measured by recording the time until the mouse removes its paws from the wooden bar to the floor surface. […]
A total of seventeen (17) eight week-old, male, C57BL/6 mice (Jackson Laboratories) are used in a typical experiment testing the effect of the compound of Example 1 or 2. […] A catalepsy score is recorded for each mouse at 2, 3, 4 and 6 hours after administration of drugs. […] The latency until the mouse steps both paws down from the bar to the floor surface (i.e., step down latency) is recorded up to 120 sec. […] If none of the 10 attempts are beyond 10 sec, the longest duration recorded is used as the catalepsy score. Otherwise, the initial cataleptic duration (>10 sec) is recorded during the 120 sec testing time. Mean step down latency is calculated for each treatment group. […]

rats = assay: Novel Object Recognition (NOR) assay; format: in vivo; conditions: rat, 0.3 mg/Kg PO, dosed 2 hours before T1, p<0.01
From the text: To measure the cognition-enhancing effects of the compounds of the invention, the candidate compounds may be evaluated in a Novel Object Recognition (NOR) assay. This assay protocol is described in detail in Ennaceur et al., Behav. Brain Res. (1988) 31:47-59 and Prickaerts et al., Eur. J. Pharmacol. (1997) 337:125-136, the contents of each of which are incorporated by reference in their entirety. In this protocol, the rats are introduced to a chamber at time T1 and allowed to interrogate two identical “familiar objects” for six minutes. Twenty four hours later, they are re-introduced to this chamber, where one of the familiar objects has been replaced with a novel object. The “discrimination index”, a measure of the time spent in close proximity to the novel over the familiar object, may then be measured. Since rodents will forget the original experience at T1 within 4 hours, this test with a 24 h interval is a measure of strong cognitive enhancement.
This assay protocol can be modified in order to evaluate different phases of memory. There are three general phases of memory, namely, acquisition, consolidation and retrieval. In this modified protocol, the rats may be dosed with the candidate compound two hours before T1 and tested 24 h later, without additional dosing. This is a test of the acquisition process. […]

Row | IC50 [1] [nM] | IC50 [2] [nM] | SMILES | minimal dose active in catalepsy model (C57BL/6 mice) [mg/kg] | activity versus vehicle in Novel Object Recognition (rats)
1 | 27000 | 1.5 | CCSc1c2c(nn1Cc1ccc(-c3cccc(F)n3)cc1)N1C(=N[C@@H]3CCC[C@@H]31)N(C)C2=O [Example 3-A, (6aR,9aS)-5,6a,7,8,9,9a-hexahydro-5-methyl-3-(ethylthio)-2-(4-(6-fluoropyridin-2-yl)benzyl)-cyclopent[4,5]imidazo[1,2-a]pyrazolo[4,3-e]pyrimidin-4(2H)-one] |  | 
2 | 4000 | 1 | CCSc1c2c(nn1Cc1ccc(-c3cccc(F)n3)cc1)N1CC(C)(C)N=C1N(C)C2=O [Example 2, 3-(ethylthio)-2-(4-(6-fluoropyridin-2-yl)benzyl)-5,7,7-trimethyl-7,8-dihydro-2H-imidazo[1,2-a]pyrazolo[4,3-e]pyrimidin-4(5H)-one] | < 0.1 | 
3 |  | 6 | CC(C)Sc1c2c(nn1Cc1ccc(-c3cccc(F)n3)cc1)N1C(=N[C@@H]3CCC[C@@H]31)N(C)C2=O [Example 3-B, (6aR,9aS)-5,6a,7,8,9,9a-hexahydro-5-methyl-3-(isopropylthio)-2-(4-(6-fluoropyridin-2-yl)benzyl)-cyclopent[4,5]imidazo[1,2-a]pyrazolo[4,3-e]pyrimidin-4(2H)-one] |  | 
4 | 11000 | 2.7 | CCSc1c2c(nn1Cc1ccc(-c3ccc(F)cn3)cc1)N1CC(C)(C)N=C1N(C)C2=O [Example 1, 3-(ethylthio)-2-(4-(5-fluoropyridin-2-yl)benzyl)-5,7,7-trimethyl-7,8-dihydro-2H-imidazo[1,2-a]pyrazolo[4,3-e]pyrimidin-4(5H)-one] | < 0.1 | active versus vehicle
